These results are taken from ChEMBL document CHEMBL5352408, “Discovery of dehydroandrographolide derivatives with C19 hindered ether as potent anti-ZIKV agents with inhibitory activities to MTase of ZIKV NS5” (Eur J Med Chem, 2022).

Data set [1] concerns Zika virus. Nature of the data set: Antiviral activity against ZIKV infected in African green monkey Vero cells assessed as inhibition of ZIKV E protein at 10 uM incubated for 48 hrs by Western blot analysis relative to control. It is filed as functional. On the technique in general: Immunoblotting shows a protein as a band on a membrane.
In data set [2] the test system is Zika virus. Nature of the data set: Antiviral activity against ZIKV infected in African green monkey vero cells assessed as reduction in plaque formation incubated for 5 days by crystal violet based assay. Type of data set: functional, organism-based. Conditions: for EC50: 120 h.
Data set [3] can be described thus: Cytotoxicity against african green monkey Vero cells incubated for 96 hrs. It is filed as toxicity, cell-based. Conditions: chlorocebus sabaeus.
A further data set concerns the target Genome polyprotein (Zika virus, UniProt Q32ZE1). Briefly: Inhibition of ZIKV NS5 MTase activity assessed as methyltransferase reaction using capped RNA substrate pre-incubated for 2.5 hrs followed by enzyme addition measured after 1 hrs by luminometer.
Data set [4] is described as follows: Cytotoxicity against human Huh-7 cells incubated for 96 hrs. Type of data set: toxicity, cell-based.
Data set [5] is described as follows: Cytotoxicity against human A549 cells incubated for 96 hrs. Type of data set: toxicity, cell-based.
The test system of data set [6] is Zika virus. Briefly: Antiviral activity against ZIKV infected in African green monkey vero cells incubated for 48 hrs by qRT-PCR analysis. Type of data set: functional, organism-based.
Data set [7] relates to Zika virus. Nature of the data set: Antiviral activity against ZIKV infected in human Huh-7 cells incubated for 48 hrs by qRT-PCR analysis. It is filed as functional, organism-based. Conditions: Huh-7, 48 h. For orientation: Real-time PCR tracks product formation cycle by cycle.
The test system of data set [8] is Zika virus. Briefly: Antiviral activity against ZIKV infected in human A549 cells incubated for 48 hrs by qRT-PCR. It is filed as functional, organism-based. Conditions: A549, 48 h.
Data set [9] deals with Zika virus. Briefly: Antiviral activity against ZIKV infected in African green monkey Vero cells assessed as inhibition of ZIKV E protein at 0.4 uM incubated for 48 hrs by Western blot analysis relative to control. Type of data set: functional.
Data set [10] relates to Zika virus. Nature of the data set: Antiviral activity against ZIKV infected in African green monkey Vero cells incubated for 48 hrs by Western blot analysis relative to control. It is filed as functional, organism-based.
A further data set concerns the target NS5 (Zika virus) (UniProt A0A143MHK7). Nature of the data set: Inhibition of ZIKV RdRP.
Data set [11] addresses Nonstructural protein 3 (Zika virus) (UniProt A0A024AXB9). Briefly: Inhibition of ZIK virus NS2B-NS3 protease.
For data set [12], the system named is Zika virus. Briefly: Antiviral activity against ZIKV infected in Vero cells assessed as virucidal effect at 10 uM pre-treated with virus for 2 hrs followed by infected with Vero cells for 2 hrs after washout transferred to normal medium measured after 48 hrs of post infection by qRT-PCR analysis based time of drug addition assay. Type of data set: functional, organism-based. As to conditions: time 4.0 hrs.

The subject of data set [13] is Zika virus. Briefly: Antiviral activity against ZIKV infected in Vero cells assessed as inhibition of viral entry at 10 uM Co-treated with virus with Vero cells followed by transferred into fresh medium measured upto 48 hrs by qRT-PCR analysis based time of drug addition assay. As to conditions: time 4.0 hrs. Type of data set: functional, organism-based.
Data set [14] concerns Zika virus. Nature of the data set: Antiviral activity against ZIKV infected in Vero cells assessed as viral infection at 10 uM pre-treated with Vero cells for 2 hrs followed by infected with virus cells for 2 hrs and measured upto 48 hrs in fresh medium by qRT-PCR analysis based time of drug addition assay. It is filed as functional, organism-based. As to conditions: time 4.0 hrs.

In data set [15] the test system is Zika virus. Nature of the data set: Antiviral activity against ZIKV infected in Vero cells assessed as viral RNA reduction at 10 uM treated immediately post infection incubated for 48 hrs by qRT-PCR analysis based time of drug addition assay. It is filed as functional, organism-based.
For data set [16], the system named is Zika virus. Briefly: Antiviral activity against ZIKV infected in Vero cells assessed as late entry stage to late viral life cycle by measuring reduction in viral RNA reduction at 10 uM treated 1 to 2 hrs post infection incubated for 48 hrs by qRT-PCR analysis based time of drug addition assay. It is filed as functional, organism-based.
Data set [17] concerns Zika virus. Nature of the data set: Antiviral activity against ZIKV infected in Vero cells assessed as late viral life cycle by measuring reduction in viral RNA reduction at 10 uM treated 3 to 6 hrs post infection incubated for 48 hrs by qRT-PCR analysis based time of drug addition assay. It is filed as functional, organism-based.
Data set [18] has as its system Zika virus. Nature of the data set: Antiviral activity against ZIKV infected in Vero cells assessed as late viral life cycle by measuring reduction in viral RNA reduction at 10 uM treated 8 hrs post infection incubated for 48 hrs by qRT-PCR analysis based time of drug addition assay. It is filed as functional, organism-based.
The test system of data set [19] is Zika virus. Briefly: Antiviral activity against ZIKV infected in Vero cells assessed as late RNA synthesis to late viral life cycle by measuring reduction in viral RNA reduction at 10 uM treated 10 hrs post infection incubated for 48 hrs by qRT-PCR analysis based time of drug addition assay relative to 8 hrs post-infection. It is filed as functional, organism-based.

The subject of data set [20] is Zika virus. Nature of the data set: Antiviral activity against ZIKV infected in Vero cells assessed as late viral life cycle by measuring reduction in viral RNA reduction at 10 uM treated 12 hrs post infection incubated for 48 hrs by qRT-PCR analysis based time of drug addition assay. Type of data set: functional, organism-based.

Activity calls are given as the source filed them. The calls are words filed in the database; no cut-off is given here.

Genome polyprotein, sequence (Q32ZE1 2517-3419 limits assumed): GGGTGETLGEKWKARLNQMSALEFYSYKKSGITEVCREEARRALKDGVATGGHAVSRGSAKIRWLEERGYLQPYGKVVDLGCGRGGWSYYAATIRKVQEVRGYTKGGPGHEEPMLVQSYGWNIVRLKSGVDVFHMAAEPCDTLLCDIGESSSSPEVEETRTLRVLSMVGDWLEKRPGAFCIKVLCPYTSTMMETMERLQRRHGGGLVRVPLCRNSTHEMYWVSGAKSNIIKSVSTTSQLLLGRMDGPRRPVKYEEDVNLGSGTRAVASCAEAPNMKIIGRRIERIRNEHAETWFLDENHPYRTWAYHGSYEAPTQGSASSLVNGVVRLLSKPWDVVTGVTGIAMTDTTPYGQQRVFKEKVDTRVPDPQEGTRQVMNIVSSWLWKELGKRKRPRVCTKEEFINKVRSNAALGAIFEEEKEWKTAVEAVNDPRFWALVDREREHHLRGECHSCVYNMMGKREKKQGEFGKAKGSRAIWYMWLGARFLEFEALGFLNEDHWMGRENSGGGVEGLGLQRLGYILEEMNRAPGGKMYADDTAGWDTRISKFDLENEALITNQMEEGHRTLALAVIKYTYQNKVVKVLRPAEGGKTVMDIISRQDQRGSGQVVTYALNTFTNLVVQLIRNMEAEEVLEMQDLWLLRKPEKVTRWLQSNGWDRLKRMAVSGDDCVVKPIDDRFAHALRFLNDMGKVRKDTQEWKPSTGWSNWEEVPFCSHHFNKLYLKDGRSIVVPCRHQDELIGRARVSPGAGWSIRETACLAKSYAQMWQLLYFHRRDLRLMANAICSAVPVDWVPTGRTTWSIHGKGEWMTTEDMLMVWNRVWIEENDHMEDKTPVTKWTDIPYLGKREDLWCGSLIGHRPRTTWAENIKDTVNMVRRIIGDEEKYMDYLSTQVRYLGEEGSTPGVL
NS5 (Zika virus), sequence (A0A143MHK7 as listed by the source): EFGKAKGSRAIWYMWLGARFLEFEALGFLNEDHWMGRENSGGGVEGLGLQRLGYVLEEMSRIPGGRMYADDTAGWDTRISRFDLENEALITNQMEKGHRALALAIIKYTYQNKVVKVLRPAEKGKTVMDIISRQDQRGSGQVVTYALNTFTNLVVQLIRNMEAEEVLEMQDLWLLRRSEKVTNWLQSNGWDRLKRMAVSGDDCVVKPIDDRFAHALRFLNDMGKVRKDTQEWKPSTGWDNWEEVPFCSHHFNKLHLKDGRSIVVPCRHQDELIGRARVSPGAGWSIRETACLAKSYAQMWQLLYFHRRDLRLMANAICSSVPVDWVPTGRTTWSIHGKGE
Nonstructural protein 3 (Zika virus), sequence (A0A024AXB9 as listed by the source): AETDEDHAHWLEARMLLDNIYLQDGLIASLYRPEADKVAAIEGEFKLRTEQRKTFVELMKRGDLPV

One may read the inhibition as the relative decrease from the control value, in per cent. Consider `NC(=O)c1ncn([C@@H]2O[C@H](CO)[C@@H](O)[C@H]2O)n1` [RIBAVIRIN], for which, in the data set with Zika virus [1], the inhibition at 10 µM amounted to 50%.

As a reminder, the EC50 is the concentration giving half of the maximal effect. For orientation: CC50 means the concentration that lowers cell viability or growth by half. A word on the IC50: it is the concentration at which inhibition is half-maximal. On to `C=C1CC[C@@H]2[C@](C)(COC(c3ccccc3)(c3ccccc3)c3ccccc3)[C@H](O)CC[C@@]2(C)[C@@H]1/C=C/C1=CCOC1=O`, for which the EC50 with Zika virus [2] stood at 6.17 µM. For the same molecule, the CC50 at 96 h in data set [3] is above 200 µM. The IC50 on Genome polyprotein was found to be 38.9 µM.

Take `C=C1CC[C@H]2[C@@](C)(CC/C(=N\O)[C@@]2(C)COC(c2ccccc2)c2ccccc2)[C@@H]1/C=C/C1=CCOC1=O`: the half-maximal effective concentration (EC50) in the data set on Zika virus [2] stood at 3.49 µM. Moreover, the IC50 at Genome polyprotein amounted to 183 µM.

As to `C=C1CC[C@H]2[C@@](C)(CCC(=O)[C@@]2(C)COC(c2ccccc2)(c2ccccc2)c2ccccc2)[C@@H]1/C=C/C1=CCOC1=O`, in the data set with Zika virus [2] (time 5.0 day), the result was inactive.

As to `C=C1CC[C@H]2[C@@](C)(CC/C(=N\O)[C@@]2(C)COC(c2ccccc2)(c2ccccc2)c2ccccc2)[C@@H]1/C=C/C1=CCOC1=O`, the EC50 came to 0.76 µM in the data set with Zika virus [2]; 0.48 µM with Zika virus [6]; 0.37 µM in the data set on Zika virus [7]; 0.45 µM with Zika virus [8]; 0.38 µM with Zika virus [10]. In addition, the CC50 at 96 h in [3], in data set [4] and in [5] was above 200 µM in each case. Further, the inhibition at 0.4 µM in the data set on Zika virus [9] turned out to be 100%. Also, the inhibition entry (at NS5 (Zika virus); in data set [11]) was “inactive” in each case. The outcome in the data set with Zika virus [12], in the data set on Zika virus [13], with Zika virus [14], with Zika virus [19] and in the data set with Zika virus [20] was inactive. Further, the outcome in the data set with Zika virus [15], with Zika virus [16], in the data set with Zika virus [17] and in the data set on Zika virus [18] was Active. Moreover, at Genome polyprotein, the IC50 stood at 18.3 µM.

Turning to `C=C1CC[C@@H]2[C@](C)(CO)[C@H](O)CC[C@@]2(C)[C@@H]1C/C=C1/C(=O)OC[C@H]1O` [ANDROGRAPHOLIDE], the EC50 in the data set with Zika virus [2] is 39.3 µM. Further, in data set [3], the CC50 at 96 h is above 200 µM.

In the case of `Nc1ncnc2c1ncn2[C@@H]1O[C@H](C[C@@H](N)CC[C@H](N)C(=O)O)[C@@H](O)[C@H]1O` [SINEFUNGIN], the IC50 on Genome polyprotein came to 19.2 µM.

In the case of `C=C1CC[C@@H]2[C@](C)(CO)[C@H](O)CC[C@@]2(C)[C@@H]1/C=C/C1=CCOC1=O`, in the data set on Zika virus [2], the EC50 worked out at 30.6 µM. Further, in data set [3], the CC50 at 96 h was above 200 µM.

Consider `C=C1CC[C@H]2[C@@](C)(CC/C(=N\O)[C@@]2(C)CO[Si](c2ccccc2)(c2ccccc2)C(C)(C)C)[C@@H]1/C=C/C1=CCOC1=O`, for which, in the data set with Zika virus [2], the EC50 came to 0.71 µM. In [3], this molecule registered a CC50 at 96 h above 200 µM. Also, the IC50 at Genome polyprotein is 14.1 µM.
